Data on one compound can be found in ChEMBL document CHEMBL3351728, “3-alkoxy-pyrrolo[1,2-b]pyrazolines as selective androgen receptor modulators with ideal physicochemical properties for transdermal administration” (J Med Chem, 2014).

The source made the active and inactive calls. The calls are words filed in the database; no cut-off is given here. Where only a bound is given, the exact number is not on record here.

A word on the IC50: it is the concentration at which inhibition is half-maximal. Higher therefore signals a need for much substance. A word on the ED50: it is the dose at which the effect has come halfway, by size or by number of responders.

One series concerns the target T1, Estrogen receptor (Homo sapiens, UniProt P03372).
T1 sequence (P03372 whole entry): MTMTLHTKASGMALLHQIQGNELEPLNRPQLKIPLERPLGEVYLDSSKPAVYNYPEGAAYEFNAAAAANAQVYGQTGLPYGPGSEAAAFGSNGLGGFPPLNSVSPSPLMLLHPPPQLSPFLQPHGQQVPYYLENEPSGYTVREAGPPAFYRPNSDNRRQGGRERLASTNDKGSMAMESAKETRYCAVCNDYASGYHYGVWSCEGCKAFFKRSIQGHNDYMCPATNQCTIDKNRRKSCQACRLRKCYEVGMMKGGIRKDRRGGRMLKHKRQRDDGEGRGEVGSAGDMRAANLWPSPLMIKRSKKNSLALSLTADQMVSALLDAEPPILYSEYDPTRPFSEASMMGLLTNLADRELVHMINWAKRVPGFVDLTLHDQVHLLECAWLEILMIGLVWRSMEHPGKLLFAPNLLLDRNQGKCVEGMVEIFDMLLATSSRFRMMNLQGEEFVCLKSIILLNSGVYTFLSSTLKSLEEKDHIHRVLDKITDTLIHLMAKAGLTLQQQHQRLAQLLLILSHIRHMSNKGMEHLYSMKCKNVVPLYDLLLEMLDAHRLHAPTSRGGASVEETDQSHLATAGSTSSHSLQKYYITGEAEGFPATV
Briefly: Binding affinity to estrogen receptor (unknown origin) incubated for 4 hrs.

Series [1] relates to Rattus norvegicus. Briefly: Androgenic activity in orchidectomized rat assessed as stimulation of prostate weight treated subcutaneously once daily for 14 days by Hershberger assay. It counts as organism-based. Conditions: Prostate gland, sc, 336 h.
The target of another series is T2, Progesterone receptor (Homo sapiens, UniProt P06401).
T2 sequence (P06401 whole entry): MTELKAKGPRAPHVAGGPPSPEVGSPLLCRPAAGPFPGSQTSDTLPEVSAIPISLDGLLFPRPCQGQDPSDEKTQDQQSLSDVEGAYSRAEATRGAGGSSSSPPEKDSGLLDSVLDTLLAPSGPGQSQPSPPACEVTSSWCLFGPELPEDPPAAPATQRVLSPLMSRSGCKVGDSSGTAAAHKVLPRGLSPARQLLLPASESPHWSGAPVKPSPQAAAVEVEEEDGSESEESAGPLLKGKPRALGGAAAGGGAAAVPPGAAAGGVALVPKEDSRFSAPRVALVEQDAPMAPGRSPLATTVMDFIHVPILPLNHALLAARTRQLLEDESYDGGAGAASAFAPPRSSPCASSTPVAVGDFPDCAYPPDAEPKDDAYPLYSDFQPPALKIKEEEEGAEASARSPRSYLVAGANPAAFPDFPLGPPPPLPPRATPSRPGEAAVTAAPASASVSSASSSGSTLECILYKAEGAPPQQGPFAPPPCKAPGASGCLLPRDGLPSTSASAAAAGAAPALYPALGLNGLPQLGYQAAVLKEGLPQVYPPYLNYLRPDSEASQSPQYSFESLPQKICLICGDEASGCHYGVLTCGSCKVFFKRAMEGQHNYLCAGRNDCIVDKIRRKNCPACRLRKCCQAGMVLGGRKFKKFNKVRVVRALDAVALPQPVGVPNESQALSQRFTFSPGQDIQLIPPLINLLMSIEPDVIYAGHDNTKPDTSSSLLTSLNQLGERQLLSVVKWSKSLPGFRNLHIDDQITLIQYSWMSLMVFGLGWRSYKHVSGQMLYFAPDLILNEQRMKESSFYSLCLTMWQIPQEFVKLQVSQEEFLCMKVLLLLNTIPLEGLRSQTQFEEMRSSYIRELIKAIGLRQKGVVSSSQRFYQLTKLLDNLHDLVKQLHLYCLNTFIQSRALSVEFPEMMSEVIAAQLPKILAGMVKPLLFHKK
Kind of series: Binding affinity to progesterone receptor (unknown origin) incubated for 4 hrs.

Series [2] is described as follows: Terminal half life in Wistar rat at 1 mg/kg, iv. It counts as ADME, organism-based. Further details: dose 1 mg/kg, route intravenous. Conditions: in vivo, read-out: beta t1/2 (converted).
The test system of series [3] is Rattus norvegicus. Briefly: Anabolic activity in orchidectomized rat assessed as stimulation of bulbocavernosus/levator ani muscle weight treated at 0.3 mg/kg, sc once daily for 14 days by Hershberger assay. Type of series: functional, organism-based. Further details: dose 0.3 mg/kg.

As to `CO[C@@H]1C(c2ccc(C#N)c(Cl)c2C)=NN2CC[C@H](O)[C@@H]12`, the IC50 at Estrogen receptor was over 1000 nM; at Progesterone receptor, 700 nM. For the same compound, the ED50 with Rattus norvegicus [1] was found to be 2.73 mg/kg. Further, the half-life in series [2] is 5.7 h. Besides, the outcome in the series with Rattus norvegicus [3] was Active.
